Patent publication US20260060989A1, “Charged Ion Channel Blockers And Methods For Use” (Nocion Therapeutics, Inc., priority 2024, published 2026)

What was measured:
[1] = biological target: T1, NaV1.7 (Homo sapiens, UniProt Q15858); assay: Whole cell patch clamp, internal block of NaV1.7 current (compound in intracellular solution); type: cell-based; settings: test concentration 0.32 μM; text says intracellular inhibition (compound in internal solution), 5 Hz stimulation; read-out: NaV1.7 Extracellular Inhibition
T1 construct: expressed in transfected cells; host or cells: Tetracycline-inducible cell line kept under hygromycin and blasticidin selection
Protocol: (§1) NaV1.7 was expressed upon induction with tetracycline. Cells were cultured in DMEM containing 10% dialyzed Fetal Bovine Serum (VWR, Radnor, PA), 1% Glutamax (VWR, Radnor, PA), 1% Penicillin-Streptomycin (VWR, Radnor, PA), 100 mg/L Hygromycin (Thermo Fisher Scientific, Waltham, MA and 5 mg/L Blasticidin (Alfa Aesar, Haverhill, MA). Cells were grown and maintained at 37° C. in a humidified environment containing 10% CO2 in air. Cells were detached from the culture flask for passage and harvested using 0.05% Trypsin-EDTA (Thermo Fisher Scientific, Waltham, MA). To induce NaV1.7, cells were induced with tetracycline (0.1-1 μg/mL, IBI Scientific, Peosta, IA) the day before recording and plated onto 24-well plates. Cells were washed with DPBS (VWR, Radnor, PA), trypsinized and then triturated five times in 10 mL of growth media to break apart cell aggregates. […]
(§2) Once the recording was started, the voltage protocol was run at 30 second intervals for 5 minutes to get a stable baseline. […] Currents were recorded using PatchMaster software with Heka EPC10 (HEKA Electronics, Lambrecht, Germany). […]
(§3) The data was plotted using the Patchmaster software (HEKA Electronics, Lambrecht, Germany) and analyzed by plotting the minimum current during the voltage step to −20 mV (peak inward current) as a function of time. […]

[2] = biological target: T1, NaV1.7; assay: Whole cell patch clamp, external block of NaV1.7 current (compound in external solution); type: cell-based; settings: test concentration 10 μM; compound applied in external solution for 5 minutes, 5 Hz stimulation; read-out: NaV1.7 Extracellular Inhibition
Protocol: as §1, §2, §3

T1 sequence (Q15858 whole entry): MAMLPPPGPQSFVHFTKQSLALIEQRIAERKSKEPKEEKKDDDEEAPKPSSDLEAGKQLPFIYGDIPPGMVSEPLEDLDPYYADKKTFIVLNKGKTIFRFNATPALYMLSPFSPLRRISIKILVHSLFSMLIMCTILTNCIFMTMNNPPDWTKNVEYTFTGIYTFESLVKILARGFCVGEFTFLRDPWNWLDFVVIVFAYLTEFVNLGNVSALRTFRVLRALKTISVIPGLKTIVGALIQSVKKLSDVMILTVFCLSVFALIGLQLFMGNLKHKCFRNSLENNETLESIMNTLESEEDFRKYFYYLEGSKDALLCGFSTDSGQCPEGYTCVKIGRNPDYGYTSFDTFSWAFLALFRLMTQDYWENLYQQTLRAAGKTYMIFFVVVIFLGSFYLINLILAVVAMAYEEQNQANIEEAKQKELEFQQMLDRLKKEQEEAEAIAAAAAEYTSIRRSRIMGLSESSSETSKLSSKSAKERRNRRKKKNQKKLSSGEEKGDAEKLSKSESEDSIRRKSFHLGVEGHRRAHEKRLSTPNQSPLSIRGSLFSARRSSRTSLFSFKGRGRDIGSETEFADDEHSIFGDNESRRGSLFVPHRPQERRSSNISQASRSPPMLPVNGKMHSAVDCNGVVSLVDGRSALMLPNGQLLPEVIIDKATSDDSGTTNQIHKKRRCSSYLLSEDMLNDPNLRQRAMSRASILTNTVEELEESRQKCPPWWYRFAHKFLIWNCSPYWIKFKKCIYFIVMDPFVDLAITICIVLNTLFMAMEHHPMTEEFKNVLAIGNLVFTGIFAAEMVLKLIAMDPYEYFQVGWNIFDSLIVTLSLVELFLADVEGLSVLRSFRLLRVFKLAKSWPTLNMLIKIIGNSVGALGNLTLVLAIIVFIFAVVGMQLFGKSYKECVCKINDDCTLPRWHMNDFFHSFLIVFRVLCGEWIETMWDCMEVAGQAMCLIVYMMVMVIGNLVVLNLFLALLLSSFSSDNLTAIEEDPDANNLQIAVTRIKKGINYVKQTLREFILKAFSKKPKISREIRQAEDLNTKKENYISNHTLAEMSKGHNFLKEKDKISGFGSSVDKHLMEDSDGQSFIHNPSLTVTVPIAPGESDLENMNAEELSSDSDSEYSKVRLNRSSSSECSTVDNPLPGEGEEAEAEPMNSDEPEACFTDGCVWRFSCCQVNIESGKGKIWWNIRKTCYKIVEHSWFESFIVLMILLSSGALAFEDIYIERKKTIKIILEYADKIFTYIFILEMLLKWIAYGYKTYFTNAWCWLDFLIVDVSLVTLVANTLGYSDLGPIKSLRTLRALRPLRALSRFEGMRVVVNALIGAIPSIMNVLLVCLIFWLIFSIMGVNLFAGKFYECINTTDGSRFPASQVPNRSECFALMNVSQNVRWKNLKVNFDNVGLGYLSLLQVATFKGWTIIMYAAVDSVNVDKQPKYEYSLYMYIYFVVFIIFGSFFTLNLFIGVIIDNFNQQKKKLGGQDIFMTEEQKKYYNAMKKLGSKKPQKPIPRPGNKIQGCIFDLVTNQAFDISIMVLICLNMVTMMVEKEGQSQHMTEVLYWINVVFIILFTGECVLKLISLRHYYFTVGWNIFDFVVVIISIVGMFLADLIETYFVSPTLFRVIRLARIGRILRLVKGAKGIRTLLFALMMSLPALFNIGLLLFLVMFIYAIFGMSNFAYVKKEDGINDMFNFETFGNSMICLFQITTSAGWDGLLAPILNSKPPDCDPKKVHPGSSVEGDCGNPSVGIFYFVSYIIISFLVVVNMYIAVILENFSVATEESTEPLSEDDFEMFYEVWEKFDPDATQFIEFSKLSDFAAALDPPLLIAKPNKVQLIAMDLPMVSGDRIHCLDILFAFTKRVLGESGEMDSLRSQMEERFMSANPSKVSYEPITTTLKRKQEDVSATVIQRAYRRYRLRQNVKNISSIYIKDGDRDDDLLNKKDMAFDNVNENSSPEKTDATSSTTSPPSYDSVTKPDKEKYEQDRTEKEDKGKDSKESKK

Cc1cccc(C)c1NC(=O)C[N+]1(CCOC(=O)c2ccccc2Cl)CCCCCC1 [Compound 1, 1-(2-((2-chlorobenzoyl)oxy)ethyl)-1-(2-((2,6-dimethylphenyl)amino)-2-oxoethyl)azepan-1-ium bromide]
inhibition at 0.32 µM [1]: > 70% | inhibition at 10 µM [2]: 40 to 70%
